Experimental data reported in the supplement of paper PMC10307832.

Columns and labels:
Assay in all cases: relative viability (nuclei count vs DMSO), 5 days (fraction); higher = more cells survive
NCI-H522 = test system: NCI-H522
Procedure, shortened: (§1)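 Relative viability was taken as the ratio of nuclei in treated wells to nuclei in vehicle wells. Lung cancer cell lines in 1536-well plates received compounds by pin tool one day after seeding, either one drug alone or a fixed anchor-drug dose plus five library-drug doses (not always all listed) in √10 steps. Nuclei were counted on 4× images after 5 days of treatment, and values are medians of duplicate plates.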

NCI-H1563 = test system: NCI-H1563
Procedure, shortened: as §1

NCI-H1623 = test system: NCI-H1623
Procedure, shortened: as §1

SW 900 = test system: SW 900
Procedure, shortened: as §1

NCI-H2342 = test system: NCI-H2342
Procedure, shortened: as §1

IA-LM = test system: IA-LM
Procedure, shortened: as §1

NCI-H1648 = test system: NCI-H1648
Procedure, shortened: as §1

A549 = test system: A549
Procedure, shortened: as §1

Q: For `O=c1[nH]c2ccccc2n1C1CCN(CCCC(c2ccc(F)cc2)c2ccc(F)cc2)CC1` [Pimozide] + CCNC(=O)c1noc(-c2cc(C(C)C)c(O)cc2O)c1-c1ccc(CN2CCOCC2)cc1 [Luminespib] (partner 0.01 µM), which relative viability (NCI-H522; first compound 0.08 µM) is on record?
A: 1.01

Q: What about the relative viability (NCI-H522; first compound 0.253 µM) of the same compound?
A: 1.08

Q: And the relative viability (NCI-H522; first compound 0.8 µM)?
A: 1.21

Q: What about the relative viability (NCI-H522; first compound 2.53 µM) of the same compound?
A: 1.21

Q: And the relative viability (NCI-H522; first compound 8 µM)?
A: 1.24

Q: And the relative viability (NCI-H1563; first compound 0.08 µM)?
A: 0.511

Q: And the relative viability (NCI-H1563; first compound 0.253 µM)?
A: 0.513

Q: And the relative viability (NCI-H1563; first compound 0.8 µM)?
A: 0.516

Q: What about the relative viability (NCI-H1563; first compound 2.53 µM) of the same compound?
A: 0.549

Q: And the relative viability (NCI-H1563; first compound 8 µM)?
A: 0.496

Q: And the relative viability (NCI-H1623; first compound 0.253 µM)?
A: 0.515

Q: What about the relative viability (NCI-H1623; first compound 0.8 µM) of the same compound?
A: 0.487

Q: What about the relative viability (NCI-H1623; first compound 2.53 µM) of the same compound?
A: 0.521

Q: And the relative viability (NCI-H1623; first compound 8 µM)?
A: 0.447

Q: And the relative viability (SW 900; first compound 0.08 µM)?
A: 0.163

Q: What about the relative viability (SW 900; first compound 0.253 µM) of the same compound?
A: 0.157

Q: And the relative viability (SW 900; first compound 0.8 µM)?
A: 0.18

Q: What about the relative viability (SW 900; first compound 2.53 µM) of the same compound?
A: 0.192

Q: What about the relative viability (SW 900; first compound 8 µM) of the same compound?
A: 0.181

Q: And the relative viability (NCI-H2342; first compound 0.08 µM)?
A: 0.616

Q: What about the relative viability (NCI-H2342; first compound 0.253 µM) of the same compound?
A: 0.685

Q: What about the relative viability (NCI-H2342; first compound 0.8 µM) of the same compound?
A: 0.611

Q: And the relative viability (NCI-H2342; first compound 2.53 µM)?
A: 0.739

Q: What about the relative viability (NCI-H2342; first compound 8 µM) of the same compound?
A: 0.696

Q: Which relative viability (IA-LM; first compound 5 µM) does the source give for `O=C(O)CCCCC(CCSCc1ccccc1)SCc1ccccc1` (stereo unspecified) [CPI-613] + O=C(CCCCCCC(=O)Nc1ccccc1)NO [Vorinostat] (partner 1 µM) here?
A: 0.876

Q: What about the relative viability (IA-LM; first compound 15.81 µM) of the same compound?
A: 0.869

Q: And the relative viability (IA-LM; first compound 50 µM)?
A: 0.685

Q: What about the relative viability (IA-LM; first compound 500 µM) of the same compound?
A: 0.937

Q: What about the relative viability (NCI-H522; first compound 5 µM) of the same compound?
A: 0.841

Q: And the relative viability (NCI-H522; first compound 15.81 µM)?
A: 0.812

Q: What about the relative viability (NCI-H522; first compound 50 µM) of the same compound?
A: 0.833

Q: And the relative viability (NCI-H522; first compound 158.11 µM)?
A: 0.741

Q: What about the relative viability (NCI-H522; first compound 500 µM) of the same compound?
A: 0.244

Q: And the relative viability (NCI-H1648; first compound 5 µM)?
A: 0.527

Q: And the relative viability (NCI-H1648; first compound 15.81 µM)?
A: 0.336

Q: What about the relative viability (NCI-H1648; first compound 50 µM) of the same compound?
A: 0.422

Q: What about the relative viability (NCI-H1648; first compound 158.11 µM) of the same compound?
A: 0.142

Q: What about the relative viability (NCI-H1648; first compound 500 µM) of the same compound?
A: 0.0754

Q: What about the relative viability (SW 900; first compound 5 µM) of the same compound?
A: 0.512

Q: And the relative viability (SW 900; first compound 50 µM)?
A: 0.555

Q: What about the relative viability (SW 900; first compound 158.11 µM) of the same compound?
A: 0.316

Q: And the relative viability (SW 900; first compound 500 µM)?
A: 0.0227

Q: And the relative viability (NCI-H2342; first compound 5 µM)?
A: 0.648

Q: And the relative viability (NCI-H2342; first compound 15.81 µM)?
A: 0.629

Q: What about the relative viability (NCI-H2342; first compound 50 µM) of the same compound?
A: 0.721

Q: What about the relative viability (NCI-H2342; first compound 158.11 µM) of the same compound?
A: 0.763

Q: And the relative viability (NCI-H2342; first compound 500 µM)?
A: 0.939

Q: Which results are given for `Cc1cnc(-c2cnc(NCCNc3ccc(C#N)cn3)nc2-c2ccc(Cl)cc2Cl)[nH]1` + Nc1ncn([C@H]2C[C@H](O)[C@@H](CO)O2)c(=O)n1 [Decitabine] (partner 2 µM)?
A: relative viability (NCI-H522; first compound 0.08 µM): 0.779; relative viability (NCI-H522; first compound 0.253 µM): 0.68; relative viability (NCI-H522; first compound 0.8 µM): 0.557; relative viability (NCI-H522; first compound 2.53 µM): 0.63; relative viability (NCI-H1648; first compound 0.08 µM): 0.444; relative viability (NCI-H1648; first compound 0.253 µM): 0.453; relative viability (NCI-H1648; first compound 0.8 µM): 0.554; relative viability (NCI-H1648; first compound 2.53 µM): 0.541; relative viability (SW 900; first compound 0.08 µM): 0.523; relative viability (SW 900; first compound 0.253 µM): 0.436; relative viability (SW 900; first compound 0.8 µM): 0.442; relative viability (SW 900; first compound 2.53 µM): 0.393; relative viability (NCI-H2342; first compound 0.08 µM): 0.727; relative viability (NCI-H2342; first compound 0.253 µM): 0.548; relative viability (NCI-H2342; first compound 0.8 µM): 0.671; relative viability (NCI-H2342; first compound 2.53 µM): 0.66; relative viability (A549; first compound 0.08 µM): 0.257; relative viability (A549; first compound 0.253 µM): 0.254; relative viability (A549; first compound 0.8 µM): 0.262; relative viability (A549; first compound 2.53 µM): 0.316

Q: Which results are given for `Cc1cnc(-c2cnc(NCCNc3ccc(C#N)cn3)nc2-c2ccc(Cl)cc2Cl)[nH]1` + O=C(CCCCCCC(=O)Nc1ccccc1)NO [Vorinostat] (partner 1 µM)?
A: relative viability (IA-LM; first compound 0.08 µM): 1.16; relative viability (IA-LM; first compound 0.8 µM): 0.973; relative viability (IA-LM; first compound 2.53 µM): 0.888; relative viability (NCI-H522; first compound 0.08 µM): 1.01; relative viability (NCI-H522; first compound 0.253 µM): 0.947; relative viability (NCI-H522; first compound 0.8 µM): 0.958; relative viability (NCI-H522; first compound 2.53 µM): 0.842; relative viability (NCI-H1648; first compound 0.08 µM): 0.718; relative viability (NCI-H1648; first compound 0.253 µM): 0.516; relative viability (NCI-H1648; first compound 0.8 µM): 0.241; relative viability (NCI-H1648; first compound 2.53 µM): 0.327; relative viability (SW 900; first compound 0.08 µM): 0.381; relative viability (SW 900; first compound 0.253 µM): 0.49; relative viability (SW 900; first compound 0.8 µM): 0.519; relative viability (SW 900; first compound 2.53 µM): 0.472; relative viability (NCI-H2342; first compound 0.08 µM): 0.753; relative viability (NCI-H2342; first compound 0.253 µM): 0.685; relative viability (NCI-H2342; first compound 0.8 µM): 0.838; relative viability (NCI-H2342; first compound 2.53 µM): 0.648

Q: What does the source list for `Cc1cnc(-c2cnc(NCCNc3ccc(C#N)cn3)nc2-c2ccc(Cl)cc2Cl)[nH]1` + CCNC(=O)c1noc(-c2cc(C(C)C)c(O)cc2O)c1-c1ccc(CN2CCOCC2)cc1 [Luminespib] (partner 0.01 µM)?
A: relative viability (NCI-H522; first compound 0.08 µM): 1.14; relative viability (NCI-H522; first compound 0.253 µM): 1.02; relative viability (NCI-H522; first compound 0.8 µM): 0.99; relative viability (NCI-H522; first compound 2.53 µM): 1.31; relative viability (NCI-H1563; first compound 0.08 µM): 0.473; relative viability (NCI-H1563; first compound 0.253 µM): 0.535; relative viability (NCI-H1563; first compound 0.8 µM): 0.499; relative viability (NCI-H1563; first compound 2.53 µM): 0.439; relative viability (NCI-H1623; first compound 0.08 µM): 0.594; relative viability (NCI-H1623; first compound 0.253 µM): 0.622; relative viability (NCI-H1623; first compound 0.8 µM): 0.542; relative viability (NCI-H1623; first compound 2.53 µM): 0.507; relative viability (SW 900; first compound 0.08 µM): 0.196; relative viability (SW 900; first compound 0.253 µM): 0.168; relative viability (SW 900; first compound 0.8 µM): 0.206; relative viability (SW 900; first compound 2.53 µM): 0.203; relative viability (NCI-H2342; first compound 0.08 µM): 0.825; relative viability (NCI-H2342; first compound 0.253 µM): 0.654; relative viability (NCI-H2342; first compound 0.8 µM): 0.694; relative viability (NCI-H2342; first compound 2.53 µM): 0.584
